The results in this text go back to patent US20160000869A1, “METHODS OF TREATING IPEX SYNDROME USING TOXIN-BASED PHARMACEUTICAL COMPOSITIONS” (KINETA ONE, LLC, priority 2013, published 2016).

Assay [1] has as its system effector memory T cells (TEM). The assay can be described thus: Kv1.3 expression, cytokine production and proliferation of TEM in activated PBMCs from IPEX subjects, with or without ShK-186 (flow cytometry, RT-QPCR). The class given is cell-based, human. The protocol:
This example is performed to evaluate the expression of Kv1.3 channels by TEM found in IPEX subjects compared to controls, and to characterize the responsiveness of IPEX subject samples to treatment with therapeutic peptides such as the ShK-based peptide, ShK-186, formulated into a pharmaceutical composition. To evaluate Kv1.3 expression, peripheral blood mononuclear cells from IPEX and healthy controls are isolated. In the first phase of the example, the cells are activated in vitro with anti-CD3 antibodies or mitogens and then subjected to immunostaining and multicolor flow cytometry.
In the second phase, matching cell aliquots are analyzed by RT-QPCR for quantitation of Kv1.3 mRNA. In the third phase, matching cell aliquots are used to study the ability of ShK-186 to block the proinflammatory and proliferative potential of TEM from IPEX subjects versus controls. Cytokines (IFN-γ and IL-2, -4, -10, -17, and -21) and perforin are detected by intracellular cytokine staining and flow cytometry in resting or activated cells in the presence or absence of ShK-186. In this example, ten IPEX and ten normal controls are studied.
Peripheral blood mononuclear cells (PBMCs) are evaluated by multiparameter flow cytometry for cell surface expression of CD4 and CD25 and intracellular FOXP3. FACS sorting of all stimulated and stained samples will also be performed.
A general note: A flow cytometer gives signals particle by particle.

Assay [2] concerns IPEX and secondary conditions related to IPEX. Description: Administration of effective amounts to subjects with IPEX (additional studies). In kind it is in vivo. Conditions: diabetes, thyroid dysfunction, enteropathy, eczema and others.

As for “(L-PhosphoTyr)-AEEAc-RSCIDTIPKSRCTAFQCKHSMKYRLSFCRKTCGTC-amide [ShK-186]”, the “proliferation of TEM” value in assay [1] (PBMCs from IPEX subjects vs controls) is listed as “reduces”. Moreover, the “expression of Kv1.3 channels by TEM” value in assay [1] (PBMCs from IPEX subjects vs healthy controls, activated with anti-CD3 antibodies or mitogens) is listed as “reduces”. In assay [1] (intracellular cytokine staining and flow cytometry, resting or activated cells), the “IFN-γ and IL-2, -4, -10, -17, and/or -21 production by TEM” value is “reduces”. Also, the “clinically relevant improvements in IPEX and secondary conditions related to IPEX” value in assay [2] is given as “produces clinically relevant improvements”.
